Results: patent publication US20070032488A1, “6-Membered aryl and heteroaryl derivatives for treating viruses” (Genelabs Technologies, Inc., priority 2005, published 2007)

These molecules were tested on HCV replicon in ET (Huh-lucubineo-ET) cell line (screening for HCV RNA dependent RNA polymerase) (assay: Replicon Assay (luciferase reporter, ET cell line)). Settings: Hepatitis C virus; tested at 12.5 μM; luciferase activity in ET replicon cells, relative to no compound control; read-out: % inhibition (of replication).
Type: cell-based
Experimental: A cell line, ET (Huh-lucubineo-ET) was used for screening of compounds of the present invention for HCV RNA dependent RNA polymerase. The ET cell line was stably transfected with RNA transcripts harboring a I389luc-ubi-neo/NS3-3′/ET; replicon with firefly luciferase-ubiquitin-neomycin phosphotransferase fusion protein and EMCV-IRES driven NS3-5B polyprotein containing the cell culture adaptive mutations (E1202G; T1280I; K1846T) (Krieger at al, 2001 and unpublished). The ET cells were grown in DMEM, supplemented with 10% fetal calf serum, 2 mM Glutamine, Penicillin (100 IU/mL)/Streptomycin (100 μg/mL), 1× nonessential amino acids, and 250 μg/mL G418 (“Geneticin”). They were all available through Life Technologies (Bethesda, Md.). The cells were plated at 0.5-1.0×10^4 cells/well in the 96 well plates and incubated for 24 hrs before adding nucleoside analogs. […] Luciferase activity was measured 48-72 hours later by adding a lysis buffer and the substrate (Catalog number Glo-lysis buffer E2661 and Bright-Glo leuciferase system E2620 Promega, Madison, Wis.). Cells should not be too confluent during the assay. Percent inhibition of replication was plotted relative to no compound control. Under the same condition, cytotoxicity of the compounds was determined using cell proliferation reagent, WST-1 (Roche, Germany). The compounds showing potent antiviral activities, but no significant cytotoxicities were chosen for further evaluation. For these determinations, a 10-point, 2-fold serial dilution for each compound was used which spans a concentration range of 1000 fold. IC50 and TC50 values were calculated by fitting % inhibition at each concentration to the following equation: % inhibition=100%/[(IC50/[I])b+1] where b is Hill's coefficient.
The % inhibition at a particular concentration was determined using the following equation: % Inhibition=100−[100*(Lum with inhibitor-bg)/(Lum with no inhibitor-bg)]
where bg was the background with no replicon cell, and Lum was the luminescence intensity of the reporter luciferase gene.

Point of comparison: `COc1ccc(-c2ccc(Cl)cc2)c(-c2ccc3cc(-c4ccc(C(=O)O)cc4C4CCCCC4)ccc3n2)c1` [Compound 1.8a, 3-cyclohexyl-4-(2-(3-methoxy-6-(4′-chlorophenyl)phenyl)quinolin-6-yl)benzoic acid], inhibition at 12.5 µM 89%. Against it:
- Cc1nc(C)c(-c2ccc3cc(-c4c(/C=C/C(=O)N5CCCCC5)cc(C(=O)O)cc4C4CCCCC4)ccc3n2)s1 [Compound 2.9b, 3-cyclohexyl-4-(2-(2,4-dimethylthiazol-5-yl)quinolin-6-yl)-5-((E)-3-oxo-3-(piperidin-1-yl)prop-1-enyl)benzoic acid] — lower, 80%
- Cc1nc(C)c(-c2ccc3cc(-c4c(C5CCCCC5)cc(C(=O)O)cc4[N+](=O)[O-])ccc3n2)s1 [Compound 7, 3-cyclohexyl-4-[2-(2,4-dimethyl-thiazol-5-yl)-quinolin-6-yl]-5-nitro-benzoic acid] — lower, 30%
- C#Cc1cc(C(=O)O)cc(C2CCCCC2)c1-c1ccc2nc(-c3sc(C)nc3C)ccc2c1 [Compound 4.4b, 3-cyclohexyl-5-ethynyl-4-(2-(2,4-dimethylthiazol-5-yl)quinolin-6-yl)benzoic acid] — lower, 87%
- Cc1nc(C)c(-c2ccc3cc(-c4c(CC(=O)N5CCOCC5)cc(C(=O)O)cc4C4CCCCC4)ccc3n2)s1 [Compound 9, 3-cyclohexyl-4-[2-(2,4-dimethyl-thiazol-5-yl)-quinolin-6-yl]-5-(2-morpholin-4-yl-2-oxo-ethyl)-benzoic acid] — lower, 6.4%
- Cc1nc(C)c(-c2ccc3cc(-c4c(/C=C/C(=O)N5CCOCC5)cc(C(=O)O)cc4C4CCCCC4)ccc3n2)s1 [Compound 2.9a, 3-cyclohexyl-4-(2-(2,4-dimethylthiazol-5-yl)quinolin-6-yl)-5-((E)-3-morpholino-3-oxoprop-1-enyl)benzoic acid] — lower, 65%
- Cc1nc(C)c(-c2ccc3cc(-c4c(N)cc(C(=O)O)cc4C4CCCCC4)ccc3n2)s1 [Compound 8, 3-amino-5-cyclohexyl-4-[2-(2,4-dimethyl-thiazol-5-yl)-quinolin-6-yl]-benzoic acid] — lower, 54%
- COCCOc1ccc(-c2ccc(Cl)cc2)c(-c2ccc3cc(-c4ccc(C(=O)O)cc4C4CCCCC4)ccc3n2)c1 [Compound 1.8b, 3-cyclohexyl-4-(2-(3-(2-methoxyethoxy)-6-(4′-chlorophenyl)phenyl)quinolin-6-yl)benzoic acid] — higher, 94%
- Cc1nc(C)c(-c2ccc3cc(-c4c(CC(=O)N5CCOCC5)cc(-c5nnn[nH]5)cc4C4CCCCC4)ccc3n2)s1 [Compound 11, 2-[3-cyclohexyl-2-[2-(2,4-dimethyl-thiazol-5-yl)-quinolin-6-yl]-5-(1H-tetrazol-5-yl)-phenyl]-1-morpholin-4-yl-ethanone] — lower, 27%
- Cc1nc(C)c(-c2ccc3cc(-c4c(CC(=O)N5CCOCC5)cc(C(=O)NC5(C(=O)O)CCCC5)cc4C4CCCCC4)ccc3n2)s1 [Compound 10, 1-[3-cyclohexyl-4-[2-(2,4-dimethyl-thiazol-5-yl)-quinolin-6-yl]-5-(2-morpholin-4-yl-2-oxo-ethyl)-benzoylamino]-cyclopentanecarboxylic acid] — lower, 51%
